Measurements: patent publication US8822451B2, “Modulators of ATP-binding cassette transporters” (Vertex Pharmaceuticals Incorporated, priority 2005, dated 2014)

Biological target: T1, […]F508-CFTR (Homo sapiens, UniProt P13569, DEL508-508)
T1 construct: expressed in transfected cells
Test: Assay results of Table 3: ΔF508-CFTR modulation, membrane potential optical assay (assay format not stated)
Format: cell-based
Conditions: NIH3T3 mouse fibroblasts stably expressing […]F508-CFTR (optical assays); for Efficacy: efficacy range; for EC50: potency range
How it was run: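 Two VIPR II FRET voltage-dye formats in ΔF508-CFTR NIH3T3 cells yield EC50 and efficacy. Potentiator mode: 27° C.-corrected cells get compound in Cl⁻-free medium, forskolin 2-10 μM after 22 s (final Cl⁻ 28 mM). Corrector mode: compound 16 h at 37° C., activation with forskolin 10 μM plus genistein 20 μM.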

T1 sequence (P13569 with tags, fused parts or gaps DEL508-508): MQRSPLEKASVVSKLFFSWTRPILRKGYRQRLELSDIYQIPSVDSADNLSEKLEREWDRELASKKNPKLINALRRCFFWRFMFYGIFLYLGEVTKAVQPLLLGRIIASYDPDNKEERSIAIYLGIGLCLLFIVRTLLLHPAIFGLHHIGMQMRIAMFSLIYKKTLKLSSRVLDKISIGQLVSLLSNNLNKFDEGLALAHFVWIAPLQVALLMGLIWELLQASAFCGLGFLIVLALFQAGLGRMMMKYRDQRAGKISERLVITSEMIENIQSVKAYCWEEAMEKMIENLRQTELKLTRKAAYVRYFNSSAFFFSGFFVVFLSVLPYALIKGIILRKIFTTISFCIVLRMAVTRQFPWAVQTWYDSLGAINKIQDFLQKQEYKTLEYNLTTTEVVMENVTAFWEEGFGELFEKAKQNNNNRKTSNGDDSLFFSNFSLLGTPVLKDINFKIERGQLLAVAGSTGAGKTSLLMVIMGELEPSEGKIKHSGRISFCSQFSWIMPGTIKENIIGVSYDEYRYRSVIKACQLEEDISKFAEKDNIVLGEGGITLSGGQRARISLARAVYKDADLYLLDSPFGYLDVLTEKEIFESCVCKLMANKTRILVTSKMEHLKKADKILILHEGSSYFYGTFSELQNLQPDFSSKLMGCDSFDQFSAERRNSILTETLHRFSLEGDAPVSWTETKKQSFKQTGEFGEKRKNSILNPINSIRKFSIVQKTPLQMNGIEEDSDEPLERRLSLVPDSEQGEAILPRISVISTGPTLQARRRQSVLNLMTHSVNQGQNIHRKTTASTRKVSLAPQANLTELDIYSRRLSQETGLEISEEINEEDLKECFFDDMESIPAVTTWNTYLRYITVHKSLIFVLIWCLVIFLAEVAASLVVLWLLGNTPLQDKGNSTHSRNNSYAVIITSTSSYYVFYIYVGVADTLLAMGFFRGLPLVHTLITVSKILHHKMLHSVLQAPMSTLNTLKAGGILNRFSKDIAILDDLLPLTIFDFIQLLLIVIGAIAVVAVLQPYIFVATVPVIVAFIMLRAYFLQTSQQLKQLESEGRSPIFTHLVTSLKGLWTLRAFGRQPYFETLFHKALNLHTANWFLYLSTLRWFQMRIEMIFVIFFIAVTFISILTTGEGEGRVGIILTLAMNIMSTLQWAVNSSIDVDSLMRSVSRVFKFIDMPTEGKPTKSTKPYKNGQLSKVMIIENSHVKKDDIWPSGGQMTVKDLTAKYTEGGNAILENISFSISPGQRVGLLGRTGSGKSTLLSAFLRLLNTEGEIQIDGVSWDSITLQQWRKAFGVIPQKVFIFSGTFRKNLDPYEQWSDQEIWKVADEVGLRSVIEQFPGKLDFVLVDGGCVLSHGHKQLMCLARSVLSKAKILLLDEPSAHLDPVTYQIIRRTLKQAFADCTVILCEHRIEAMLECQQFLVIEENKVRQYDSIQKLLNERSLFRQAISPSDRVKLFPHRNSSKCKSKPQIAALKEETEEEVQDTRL

Row | SMILES | EC50 [µM] | Efficacy
1 | CCN(CC)C(=O)c1cc(-c2ccccc2)nc(N(CC)CC)n1 [Compound 141] | 1 to 5 | ++ (++ corresponds to Efficacy between 100 and 50)
2 | CCCCN(CC#N)c1nc(C(N)=O)cc(-c2ccccc2)n1 [Compound 13] | > 5 | ++ (++ corresponds to Efficacy between 100 and 50)
3 | COc1ccccc1-c1cc(C(N)=O)nc(N(C)C)n1 [Compound 208] | > 5 | + (+ corresponds to Efficacy less than 50)
4 | CCN(CC)c1nc(C(N)=O)cc(-c2ccc(C(C)C)cc2)n1 [Compound 55] | < 1 | ++ (++ corresponds to Efficacy between 100 and 50)
5 | NC(=O)c1cc(-c2ccccc2)nc(N2CCCCCC2)n1 [Compound 68] | 1 to 5 | ++ (++ corresponds to Efficacy between 100 and 50)
6 | NC(=O)c1cc(-c2cc(F)cc(F)c2)nc(N2CCCCC2)n1 [Compound 219] | 1 to 5 | + (+ corresponds to Efficacy less than 50)
7 | C=CCN(CC=C)c1nc(C(N)=O)cc(-c2ccccc2)n1 [Compound 69] | 1 to 5 | +++ (+++ corresponds to Efficacy greater than 100)
8 | CCNC(=O)c1cc(-c2ccccc2)nc(N(CC)CC)n1 [Compound 91] | 1 to 5 | +++ (+++ corresponds to Efficacy greater than 100)
9 | NC(=O)c1cc(-c2ccccc2)nc(N2CCC(C(=O)c3ccc(F)cc3)CC2)n1 [Compound 60] | > 5 | ++ (++ corresponds to Efficacy between 100 and 50)
10 | COc1cccc(-c2cc(C(N)=O)nc(N(C)C)n2)c1 [Compound 77] | > 5 | + (+ corresponds to Efficacy less than 50)
11 | CCN(CC)c1nc(C(N)=O)cc(-c2ccccc2OC)n1 [Compound 110] | < 1 | +++ (+++ corresponds to Efficacy greater than 100)
12 | NC(=O)c1cc(-c2ccccc2)nc(N2CCc3ccccc3C2)n1 [Compound 54] | 1 to 5 | ++ (++ corresponds to Efficacy between 100 and 50)
13 | CCN(CC)c1nc(C(N)=O)cc(-c2cnc(OC)nc2OC)n1 [Compound 174] | > 5 | ++ (++ corresponds to Efficacy between 100 and 50)
14 | CNC(=O)c1cc(-c2ccccc2)nc(N2CCCCCC2)n1 [Compound 36] | 1 to 5 | + (+ corresponds to Efficacy less than 50)
15 | CCN(CC)c1nc(C(N)=O)cc(-c2cccc(C(F)(F)F)c2)n1 [Compound 75] | < 1 | ++ (++ corresponds to Efficacy between 100 and 50)
16 | CCN(CC)c1nc(C(N)=O)cc(-c2ccc(Cl)cc2)n1 [Compound 147] | < 1 | ++ (++ corresponds to Efficacy between 100 and 50)
17 | COc1ccc(-c2cc(C(N)=O)nc(N3CCCCC3)n2)cc1 [Compound 142] | > 5 | ++ (++ corresponds to Efficacy between 100 and 50)
18 | NC(=O)c1cc(-c2ccccc2)nc(N2CC=CCC2)n1 [Compound 46] | 1 to 5 | +++ (+++ corresponds to Efficacy greater than 100)
19 | CNC(=O)c1cc(-c2ccccc2)nc(N2CC=CCC2)n1 [Compound 153] | > 5 | ++ (++ corresponds to Efficacy between 100 and 50)

Row | SMILES | EC50 [µM] | Efficacy
20 | NC(=O)c1cc(-c2ccccc2)nc(N2CC=C(c3ccc(Cl)cc3)CC2)n1 [Compound 3] | > 5 | ++ (++ corresponds to Efficacy between 100 and 50)
21 | CNC(=O)c1cc(-c2ccccc2)nc(N2CCCCC2)n1 [Compound 232] | 1 to 5 | + (+ corresponds to Efficacy less than 50)
22 | CC(C)CCN(C)c1nc(C(N)=O)cc(-c2ccccc2)n1 [Compound 206] | 1 to 5 | ++ (++ corresponds to Efficacy between 100 and 50)
23 | COc1cccc(-c2cc(C(N)=O)nc(N3CCOCC3)n2)c1 [Compound 211] | > 5 | ++ (++ corresponds to Efficacy between 100 and 50)
24 | NC(=O)c1cc(-c2ccccc2)nc(N2CC=C(c3ccccc3)CC2)n1 [Compound 53] | > 5 | ++ (++ corresponds to Efficacy between 100 and 50)
25 | CCN(CC)c1nc(C(=O)NC)cc(-c2ccccc2)n1 [Compound 47] | 1 to 5 | +++ (+++ corresponds to Efficacy greater than 100)
26 | CN(Cc1ccccc1)c1nc(C(N)=O)cc(-c2ccccc2)n1 [Compound 164] | 1 to 5 | ++ (++ corresponds to Efficacy between 100 and 50)
27 | COc1cccc(-c2cc(C(N)=O)nc(NCC3CC3)n2)c1 [Compound 203] | > 5 | +++ (+++ corresponds to Efficacy greater than 100)
28 | CN(CC(O)c1ccccc1)c1nc(C(N)=O)cc(-c2ccccc2)n1 (stereo not drawn) [Compound 101] | > 5 | +++ (+++ corresponds to Efficacy greater than 100)
29 | CCN(CC)c1nc(C(N)=O)cc(-c2cccc(CO)c2)n1 [Compound 158] | > 5 | ++ (++ corresponds to Efficacy between 100 and 50)
30 | CC1CCN(c2nc(C(N)=O)cc(-c3ccccc3)n2)CC1 [Compound 165] | > 5 | +++ (+++ corresponds to Efficacy greater than 100)
31 | CCN(CC)C(=O)C1CCCN(c2nc(C(N)=O)cc(-c3ccccc3)n2)C1 (stereo not drawn) [Compound 177] | > 5 | ++ (++ corresponds to Efficacy between 100 and 50)
32 | CCCC1CCN(c2nc(C(N)=O)cc(-c3ccccc3)n2)CC1 [Compound 73] | 1 to 5 | + (+ corresponds to Efficacy less than 50)
33 | CCN(CC)c1nc(C(N)=O)cc(-c2cccc(OC(F)(F)F)c2)n1 [Compound 84] | < 1 | ++ (++ corresponds to Efficacy between 100 and 50)
34 | CC1CN(c2nc(C(N)=O)cc(-c3ccccc3)n2)CC(C)O1 (stereo not drawn) [Compound 134] | > 5 | ++ (++ corresponds to Efficacy between 100 and 50)
35 | CCN(CC)c1nc(C(N)=O)cc(-c2cc(OC)ccc2OC)n1 [Compound 217] | < 1 | ++ (++ corresponds to Efficacy between 100 and 50)
36 | CCN(CC)c1nc(C(N)=O)cc(-c2cccc(C(=O)OC)c2)n1 [Compound 35] | < 1 | +++ (+++ corresponds to Efficacy greater than 100)
37 | CCN(CC)c1nc(C(N)=O)cc(-c2ccc(OC(F)(F)F)cc2)n1 [Compound 29] | < 1 | ++ (++ corresponds to Efficacy between 100 and 50)
38 | C=CCN(C)c1nc(C(N)=O)cc(-c2ccccc2)n1 [Compound 14] | 1 to 5 | +++ (+++ corresponds to Efficacy greater than 100)

Further lines, with some results ahead:

Row | EC50 [µM] | SMILES | Efficacy
39 | > 5 | CNc1nc(C(N)=O)cc(-c2ccccc2)n1 [Compound 179] | + (+ corresponds to Efficacy less than 50)
40 | > 5 | COc1cccc(-c2cc(C(N)=O)nc(N3CCCCC3)n2)c1 [Compound 168] | +++ (+++ corresponds to Efficacy greater than 100)
41 | 1 to 5 | CC(C)OC(=O)c1cccc(-c2cc(C(N)=O)nc(N3CCCCC3)n2)c1 [Compound 17] | ++ (++ corresponds to Efficacy between 100 and 50)
42 | > 5 | NC(=O)c1cc(-c2ccccc2)nc(N2CCC3(CC2)OCCO3)n1 [Compound 44] | ++ (++ corresponds to Efficacy between 100 and 50)
43 | > 5 | NC(=O)c1cc(-c2csc3ccccc23)nc(N2CCCCC2)n1 [Compound 144] | ++ (++ corresponds to Efficacy between 100 and 50)
44 | > 5 | CN(Cc1cccnc1)c1nc(C(N)=O)cc(-c2ccccc2)n1 [Compound 18] | ++ (++ corresponds to Efficacy between 100 and 50)
45 | 1 to 5 | NC(=O)c1cc(-c2ccccc2)nc(N2CCCC2)n1 [Compound 26] | ++ (++ corresponds to Efficacy between 100 and 50)
46 | > 5 | C=CCNc1nc(C(N)=O)cc(-c2cccc(OC)c2)n1 [Compound 48] | ++ (++ corresponds to Efficacy between 100 and 50)
47 | 1 to 5 | CCCN(CCO)c1nc(C(N)=O)cc(-c2ccccc2)n1 [Compound 100] | ++ (++ corresponds to Efficacy between 100 and 50)
48 | > 5 | CCN(CC)c1nc(C(N)=O)cc(-c2cccc(NC(C)=O)c2)n1 [Compound 62] | ++ (++ corresponds to Efficacy between 100 and 50)
49 | < 1 | CCN(Cc1ccccc1)c1nc(C(N)=O)cc(-c2ccccc2)n1 [Compound 50] | +++ (+++ corresponds to Efficacy greater than 100)
50 | 1 to 5 | CCN(CC)c1nc(C(N)=O)cc(-c2ccccc2F)n1 [Compound 94] | +++ (+++ corresponds to Efficacy greater than 100)
51 | 1 to 5 | CCN(CC)c1nc(C(N)=O)cc(-c2ccccc2C)n1 [Compound 61] | ++ (++ corresponds to Efficacy between 100 and 50)
52 | 1 to 5 | CCOC(=O)C1CCN(c2nc(C(N)=O)cc(-c3ccccc3)n2)CC1 [Compound 99] | + (+ corresponds to Efficacy less than 50)
53 | > 5 | COc1ccc(-c2cc(C(N)=O)nc(N3CCCCC3)n2)cn1 [Compound 22] | ++ (++ corresponds to Efficacy between 100 and 50)
54 | 1 to 5 | NC(=O)c1cc(-c2cccc(F)c2F)nc(N2CCCCC2)n1 [Compound 6] | ++ (++ corresponds to Efficacy between 100 and 50)
55 | < 1 | CCOc1ccccc1-c1cc(C(N)=O)nc(N(CC)CC)n1 [Compound 5] | +++ (+++ corresponds to Efficacy greater than 100)
56 | 1 to 5 | CCN(CC)c1nc(C(N)=O)cc(-c2ccc(F)cc2)n1 [Compound 67] | +++ (+++ corresponds to Efficacy greater than 100)
57 | < 1 | CCN(CC)c1nc(C(N)=O)cc(-c2cc(C(C)C)ccc2OC)n1 [Compound 76] | +++ (+++ corresponds to Efficacy greater than 100)
